One series deals with KB tumor line. Nature of the series: Antiproliferative activity (cell viability) on KB tumor line, with or without β-N-acetylglucosaminidase. Type of series: cell-based, human. The settings on record: KB cells, 72 hours of incubation. As to the method:
(§1) The curves with the circles correspond to MMAE, the curves with the squares correspond to vector 80 and the curves with the triangles correspond to vector 80 in the presence of GlcNase.
(§2) The antiproliferative activity of vector 80 was evaluated on human KB and MDA-MB-231 tumor lines and compared to that of MMAE. To do this, compound 80 was placed in the culture medium in the absence or presence of β-N-acetylglucosaminidase and cell viability was measured after 72 hours of incubation (FIG. 1).

For a further series, the system named is MDA-MB-231 tumor line. Nature of the series: Antiproliferative activity (cell viability) on MDA-MB-231 tumor line, with or without β-N-acetylglucosaminidase. The settings on record: MDA-MB-231 cells, 72 hours of incubation. It is filed as cell-based, human. The procedure: as §1, §2
The subject of series [1] is MDA-MB-231 orthotopic tumors. Nature of the series: Therapeutic efficacy on MDA-MB-231 orthotopic triple negative breast tumor model in mice. It is filed as in vivo. As to the method: The vectors were administered on days 21, 35 and 49. Each point corresponds to the average of the tumor volumes±SEM. The curves with the triangles correspond to the vehicle and the curves with the squares correspond to the vector 80.
The therapeutic efficacy of vector 80 was evaluated in mice, on a triple negative breast tumor model of the MDA-MB-231 type (FIG. 2). Compound 80 was administered three times, with a period of 14 days, intravenously in the caudal vein, at a dose of 4 mg·kg^−1.

This note sets out measurements from patent US20240424118A1, “VECTORS TARGETING BETA-D-N-ACETYLGLUCOSAMINIDASE” (CENTRE NATIONAL DE LA RECHERCHE SCIENTIFIQUE, priority 2021, published 2024).

Regarding `CC[C@H](C)[C@@H]([C@@H](CC(=O)N1CCC[C@H]1[C@H](OC)[C@@H](C)C(=O)N[C@H](C)[C@@H](O)c1ccccc1)OC)N(C)C(=O)[C@@H](NC(=O)[C@H](C(C)C)N(C)C(=O)OC(Cc1cn(CCOCCOCCOCCOCCOCCOCCOCCOCCOCCOCCNC(=O)CCCCCN2C(=O)C=CC2=O)nn1)c1ccc(O[C@@H]2OC(CO)[C@@H](O)[C@H](O)C2NC(C)=O)c([N+](=O)[O-])c1)C(C)C` (stereo partly shown) [vector 80], the “cytotoxicity in the absence versus presence of β-N-acetylglucosaminidase” value in the series with KB tumor line and with MDA-MB-231 tumor line was “identical cytotoxicity” each time. For the same compound, the “therapeutic activity relative to the control group” value in series [1] (4 mg·kg^−1 intravenously, days 21, 35 and 49) is listed as “significant therapeutic activity”. The “mice with total and lasting regression of the tumor” value in series [1] (end of the experiment (day 63), 4 mg·kg^−1 intravenously) was 3/6. Besides, the “mice that no longer had detectable tumors” value in series [1] (from day 35, after the first injection, 4 mg·kg^−1 intravenously) is given as 4/6. In addition, in series [1] (initial response, before regrowth at day 42, 4 mg·kg^−1 intravenously), the “reduction in the initial tumor size (initial response to treatment)” value is 90%. Moreover, in series [1] (until end of protocol (day 63), 4 mg·kg^−1 intravenously, three administrations), the “mortality (tolerance)” value is on record as “no mortality”.
